According to PMC12069340 (Frontiers in Cellular and Infection Microbiology, 2025):
Counter-ions that a name gives are not always drawn. Like-named read-outs stand apart in the source and are kept apart here.

Columns and labels:
[1] = system: A/PuertoRico/8/1934 (H1N1) virus; assay: microbe, parasite or virus in culture; assay type: cell-based, influenza A virus
in vitro = details: human, Relative Viability (%)
[2] = Influenza A virus, H1N1, U-937, 48 h, read-out: NA Inhibition (%)
[3] = Influenza A virus, H1N1, U-937, 48 h; read-out: NA Inhibition (%)

Compound	NA Inhibition (%) ([1]; 20 µM)	inhibition at 20 µM [1, 3] [%]	also measured
(-)-MK 801 Maleate	26.1%	–	–
CN(C)CCC(c1ccc(Br)cc1)c1ccccn1.O=C(O)/C=C\C(=O)O (centres unmarked) [Brompheniramine hydrogen maleate]	12.4%	–	–
Cc1cc(C(C)(C)C)c(O)c(C)c1CC1=NCCN1 [Oxymetazoline hydrochloride]	–	–	inhibition at 20 µM [1, 2]: -21%; viability at 20 µM (in vitro): 113%
NCCc1c[nH]cn1 [Histamine Phosphate]	-2.9	–	viability at 20 µM (in vitro): 98.9%
CN(C)C(=O)Oc1ccc[n+](C)c1 [Pyridostigmine Bromide]	–	-34.1	viability at 20 µM (in vitro): 88.2%
Cc1cccn2c(=O)c(-c3nnn[nH]3)cnc12 [Pemirolast potassium]	–	-23.7	viability at 20 µM (in vitro): 108%
COCCCN1CCC(NC(=O)c2cc(Cl)c(N)c3c2OCC3)CC1 [Prucalopride]	–	–	inhibition at 20 µM [1, 2]: 20.7%
CCN(CC)CC(=O)Nc1c(C)cccc1C [Lidocaine]	–	5.1	–
CNCC(O)c1ccc(O)cc1 (centres unmarked) [Synephrine]	–	–	inhibition at 20 µM [1, 2]: 12.3%; viability at 20 µM (in vitro): 90.5%
c1ccc(CC2=NCCN2)cc1 [Tolazoline HCl]	–	14.5	viability at 20 µM (in vitro): 86%
C[C@H](Cc1cc2c(c(C(N)=O)c1)N(CCCO)CC2)NCCOc1ccccc1OCC(F)(F)F [Silodosin]	–	–	inhibition at 20 µM [1, 2]: -41.7%; viability at 20 µM (in vitro): 115%
Cc1cccc(C#Cc2ccccc2)n1 [MPEP]	32.6%	–	–
C[C@](N)(Cc1ccc(O)c(O)c1)C(=O)O [Methyldopa]	–	–	inhibition at 20 µM [1, 2]: -13.4%; viability at 20 µM (in vitro): 104%
Br.Br.NCCCCCNCC12CC3CC(CC(C3)C1)C2 [IEM 1754 dihydrobroMide]	23.2%	–	–
COc1ccccc1N1CCN(CCN(C(=O)C2CCCCC2)c2ccccn2)CC1.O=C(O)/C=C\C(=O)O [WAY-100635 Maleate]	9.1%	–	–
CN[C@H]1CC[C@@H](c2ccc(Cl)c(Cl)c2)c2ccccc21 [Sertraline HCl]	–	–	viability at 20 µM (in vitro): 124%
Cc1nc2n(c(=O)c1CCN1CCC(c3noc4cc(F)ccc34)CC1)CCCC2O (centres unmarked) [Paliperidone]	–	9.3	viability at 20 µM (in vitro): 110%
CN(C)CCc1c[nH]c2ccc(Cn3cncn3)cc12 [Rizatriptan Benzoate]	–	7.7	viability at 20 µM (in vitro): 106%
O=c1n(CCCN2CCN(c3cccc(Cl)c3)CC2)nc2ccccn12 [Trazodone HCl]	–	–	inhibition at 20 µM [1, 2]: -9.8%
CN1CCC(=C2c3ccccc3CC(=O)c3sccc32)CC1 [Ketotifen Fumarate]	–	-4.7	viability at 20 µM (in vitro): 108%
CC(C)(C)c1ccc(C(=O)CCCN2CCC(OC(c3ccccc3)c3ccccc3)CC2)cc1 [Ebastine]	–	–	viability at 20 µM (in vitro): 105%

Compound	NA Inhibition (%) ([1]; 20 µM)	inhibition at 20 µM [1, 3] [%]	also measured
CC(C)c1cc(-c2ccc(F)c3ccccc23)nc(N)n1 [RS-127445]	20.3%	–	–
Cc1ccccc1C(OCCN(C)C)c1ccccc1 (centres unmarked) [Orphenadrine Citrate]	–	–	viability at 20 µM (in vitro): 106%
CCCCOc1ccc(C(=O)Nc2ccc(F)cc2F)cc1 [VU 0357121]	29.7%	–	–
N#Cc1ccc2[nH]cc(CCCCN3CCN(c4ccc5oc(C(N)=O)cc5c4)CC3)c2c1 [Vilazodone HCl]	–	-49.6	viability at 20 µM (in vitro): 98.9%
CC(C)(C(=O)O)c1ccc(C(O)CCCN2CCC(C(O)(c3ccccc3)c3ccccc3)CC2)cc1 (centres unmarked) [Fexofenadine HCl]	–	–	inhibition at 20 µM [1, 2]: -9.9%
C=CCN1CC[C@]23c4c5ccc(O)c4O[C@H]2C(=O)CC[C@@]3(O)[C@H]1C5 [Naloxone HCl]	–	–	inhibition at 20 µM [1, 2]: 25.4%
O=C1CC[C@@]2(O)[C@H]3Cc4ccc(O)c5c4[C@@]2(CCN3CC2CC2)[C@H]1O5 [Naltrexone HCl]	–	–	inhibition at 20 µM [1, 2]: 10.1%; viability at 20 µM (in vitro): 107%
O=S(=O)(c1ccccc1)c1cnc2c(N3CCNCC3)cccc2c1 [SB742457]	–	16.8	–
Cc1ccc(O)c([C@H](CCN(C(C)C)C(C)C)c2ccccc2)c1 [Tolterodine tartrate]	–	–	inhibition at 20 µM [1, 2]: -12%
N=C(N)NC(=O)Cc1c(Cl)cccc1Cl [Guanfacine Hydrochloride]	–	11	viability at 20 µM (in vitro): 102%
O=C(O)CCCN1CCC(O[C@@H](c2ccc(Cl)cc2)c2ccccn2)CC1.O=S(=O)(O)c1ccccc1 [Bepotastine Besilate]	21.1%	–	–
OC[C@@H](O)CN1CCN(c2ccccc2)CC1 [Levodropropizine]	–	35.7	viability at 20 µM (in vitro): 104%
CNC(=C[N+](=O)[O-])NCCSCc1ccc(CN(C)C)o1 [Ranitidine]	–	-11.1	viability at 20 µM (in vitro): 109%
CN1CC2c3ccccc3Oc3ccc(Cl)cc3C2C1 (centres unmarked) [Asenapine]	–	–	viability at 20 µM (in vitro): 87.1%
CN1CCN(C(=O)c2cc3cc(Cl)ccc3[nH]2)CC1 [JNJ-7777120]	–	–	inhibition at 20 µM [1, 2]: 19.7%
CN(C)CC/C=C1/c2ccccc2COc2ccc(CC(=O)O)cc21 [Olopatadine HCl]	–	-11.6	viability at 20 µM (in vitro): 122%
CN1[C@@H]2C[C@@H](OC(=O)[C@H](CO)c3ccccc3)C[C@H]1[C@@H]1O[C@@H]12 [Scopolamine HBr]	–	–	inhibition at 20 µM [1, 2]: -0.4%
CN1CCC[C@@H]1Cc1c[nH]c2ccc(CCS(=O)(=O)c3ccccc3)cc12 [Eletriptan HBr]	–	20.2	–
CNC[C@H](O)c1cccc(O)c1 [Phenylephrine HCl]	–	–	inhibition at 20 µM [1, 2]: 4.9%
CC(=O)SCC(Cc1ccccc1)C(=O)NCC(=O)OCc1ccccc1 (centres unmarked) [Racecadotril]	–	–	inhibition at 20 µM [1, 2]: -29.5%
CN1CCN(c2nc3ccccc3nc2Cl)CC1 [VUF 10166]	7.6%	–	–

Compound	NA Inhibition (%) ([1]; 20 µM)	inhibition at 20 µM [1, 3] [%]	also measured
COC(=O)C1=CCCN(C)C1 [Arecoline]	–	-10.6	–
CNCCc1ccccn1.Cl.Cl [Betahistine 2HCl]	4.8%	–	–
Cl.Cl.NCCc1c[nH]cn1 [Histamine 2HCl]	2.5	–	–
CN1[C@@H]2CC[C@H]1C[C@@H](OC(=O)C(CO)c1ccccc1)C2 (some centres unmarked) [Atropine]	–	-5.8	–
CNCC(=O)c1ccc(O)c(O)c1.Cl [Adrenalone HCl]	6.4%	–	–
Cc1cccc(C)c1N=C1NCCCS1 [Xylazine HCl]	–	-20	–
Cc1cccc([C@H](C)c2cnc[nH]2)c1C [Dexmedetomidine]	21.4	–	–
Cc1nc(C#Cc2ccnc(Cl)c2)c(C)n1-c1ccc(OC(F)(F)F)cc1 [CTEP (RO4956371)]	31.0%	–	–
COc1cc(OC)c(NC(=O)Nc2cc(C)on2)cc1Cl [PNU-120596]	-38.3%	–	–
COc1ccc(NS(=O)(=O)c2sc3ccc(Cl)cc3c2C)cc1N1CCNCC1.Cl [SB271046 HCl]	18.8%	–	–
Cc1cncc(CN2CCC(=C3c4ccc(Cl)cc4CCc4cccnc43)CC2)c1.O=C(O)/C=C/C(=O)O [Rupatadine Fumarate]	22.5%	–	–
CN(C)CCCN1c2ccccc2CCc2ccc(Cl)cc21 [Clomipramine HCl]	–	–	inhibition at 20 µM [1, 2]: -11.3%
CN1c2ccccc2C(NCCCCCCC(=O)[O-])c2ccc(Cl)cc2S1(=O)=O.[Na+] (centres unmarked) [Tianeptine sodium]	4.5%	–	–
CCc1cc2c(cc1CC)CC(NC[C@H](O)c1ccc(O)c3[nH]c(=O)ccc13)C2 [Indacaterol Maleate]	–	-6	–
CC(COc1ccccc1)N(CCCl)Cc1ccccc1 (centres unmarked) [Phenoxybenzamine HCl]	–	95.4	–
C[N+]1(C)[C@@H]2C[C@@H](OC(=O)C(O)(c3cccs3)c3cccs3)C[C@H]1[C@@H]1O[C@@H]12 [Tiotropium Bromide hydrate]	–	-34.7	–
CC[N+](CC)(CC)CCOc1cccc(OCC[N+](CC)(CC)CC)c1OCC[N+](CC)(CC)CC [Gallamine Triethiodide]	–	-9	–
O=C(c1ccc(F)cc1)N1CCC[C@H](c2nc(-c3ccc(F)cc3)no2)C1 [ADX-47273]	34.4%	–	–
CNCCCC12CCC(c3ccccc31)c1ccccc12 [Maprotiline HCl]	–	–	inhibition at 20 µM [1, 2]: -23.2%
L-Adrenaline	-38.4	–	–
OC(CN1CCN(c2cccc(Cl)c2)CC1)C(c1ccccc1)c1ccccc1 (centres unmarked) [BRL-15572]	24.4%	–	–

Compound	NA Inhibition (%) ([1]; 20 µM)	inhibition at 20 µM [1, 3] [%]	also measured
COc1cc(NC(=O)c2ccccn2)ccc1Cl [VU 0361737]	–	–	inhibition at 20 µM [1, 2]: 23.5%
CN1CCC(c2c[nH]c3ccc(O)cc23)CC1 [BRL-54443]	23.6%	–	–
CN1[C@@H]2CC(O)C[C@H]1[C@@H]1O[C@@H]12 (some centres unmarked) [Scopine]	-19.4%	–	–
CCc1ccc(OCc2ccccc2C(=O)Nc2ccc3nc(C)cc(N)c3c2)cc1 [JTC-801]	41.4%	–	–
CNC[C@H](O)c1ccc(O)c(O)c1 [Epinephrine HCl]	–	–	inhibition at 20 µM [1, 2]: 7.1%
CN1CCC(=C2c3ccccc3C=Cc3ccccc32)CC1 [Cyproheptadine HCl]	–	4.6	–
CC(C)N(CCC(c1ccccc1)c1cc(CO)ccc1O)C(C)C (centres unmarked) [5-hydroxymethyl Tolterodine]	6.5%	–	–
CCC1=C[C@@H]2CN3CCc4c([nH]c5ccccc45)[C@@](C(=O)OC)(C2)[C@@H]13 [Catharanthine]	42.3%	–	–
c1ccc2c(CC3=NCCN3)cccc2c1 [Naphazoline HCl]	–	-18.7	–
COc1cc2c(cc1OC)C(=O)C(CC1CCN(Cc3ccccc3)CC1)C2 (centres unmarked) [Donepezil HCl]	–	–	inhibition at 20 µM [1, 2]: 4.5%
CCCCCCCCOc1ccccc1C(=O)Nc1ccc(C(=O)OCC[N+](C)(CC)CC)cc1 [Otilonium Bromide]	–	-2.3	–
O=C(Nc1cccc(Cl)c1)c1ccccn1 [VU 0364770]	28.5%	–	–
CN1CCC[C@@H]1CCO[C@](C)(c1ccccc1)c1ccc(Cl)cc1 [Clemastine Fumarate]	–	–	viability at 20 µM (in vitro): 88.5%
COc1ccccc1N1CCN(CCN2C(=O)CC3(CCCC3)CC2=O)CC1 [BMY 7378]	–	23.8	–
C[C@]12N[C@H](Cc3ccccc31)c1ccccc12 [MK-801 (Dizocilpine), Dizocilpine]	–	–	inhibition at 20 µM [1, 2]: 20.9%
O=C(O)c1cccnc1Nc1cccc(C(F)(F)F)c1 [Niflumic acid]	–	23.7	–
CC(NCCc1ccc(O)cc1)C(O)c1ccc(O)cc1 (centres unmarked) [Ritodrine HCl]	–	-20.6	–
C[N+]1(C)[C@@H]2CC[C@H]1C[C@@H](OC(=O)C(O)c1ccccc1)C2 (some centres unmarked) [Homatropine Methylbromide]	–	-12	–
